Experimental data as given in US11739074B2, “Ras inhibitors” (Revolution Medicines, Inc., priority 2019, dated 2023).
Where two headings read alike, the source gives them in different places.

Tested on: AsPC-1 (K-Ras G12D)
Assay: CellTiter-Glo cell viability assay, AsPC-1
Type: cell-based
Conditions: Homo sapiens, ASPC1, 120 h
Procedure: Determination of Cell Viability in RAS Mutant Cancer Cell Lines
Protocol: CellTiter-Glo® Cell Viability Assay
Note—The following protocol describes a procedure for monitoring cell viability of K-Ras mutant cancer cell lines in response to a compound of the invention. Other RAS isoforms may be employed, though the number of cells to be seeded will vary based on cell line used.
Test compounds (132.5 nL) were directly dispensed into the assay plates containing cells. […] On day 5, assay plates and their contents were equilibrated to room temperature for approximately 30 minutes. […] Luminescence was measured using the PerkinElmer Enspire. Data were normalized by the following: (Sample signal/Avg. DMSO)*100. The data were fit using a four-parameter logistic fit.

[1] = AsPC-1, K-Ras G12D, 5-day treatment, read-out: AsPC-1 Cell Viability IC50

`CCn1c(-c2cnccc2COC)c2c3cc(ccc31)-c1cccc(c1)C[C@H](NC(=O)[C@H](C(C)C)N(C)C(=O)CCN=C=Nc1ccc(OC)cc1)C(=O)N1CCC[C@H](N1)C(=O)OCC(C)(C)C2` [15 A and B] was tested, and the IC50 [1] was > 10 µM.
In the case of `CCn1c(-c2cnccc2COC)c2c3cc(ccc31)-c1cc(O)cc(c1)C[C@H](NC(=O)[C@H](C(C)C)N(C)C(=O)c1ccc(NC(=O)[C@H]3CN3)cn1)C(=O)N1CCC[C@H](N1)C(=O)OCC(C)(C)C2` [47 A and B], the IC50 [1] is reported as > 10 µM.
Compound `CCn1c(-c2cnccc2COC)c2c3cc(ccc31)-c1cccc(c1)C[C@H](NC(=O)[C@H](C(C)C)N(C)C(=O)CCN=C=NCc1ccc(OC)cc1OC)C(=O)N1CCC[C@H](N1)C(=O)OCC(C)(C)C2` [61 A and B] has an IC50 [1] of 1 to 10 µM.
For `CCn1c(-c2cnccc2COC)c2c3cc(ccc31)-c1cccc(c1)C[C@H](NC(=O)[C@H](C(C)C)N(C)C(=O)CC1(N=C=Nc3ccc(OC)cc3)CC1)C(=O)N1CCC[C@H](N1)C(=O)OCC(C)(C)C2` [65 A and B], the IC50 [1] was 1 to 10 µM.
`CCn1c(-c2cnccc2COC)c2c3cc(ccc31)-c1cccc(c1)C[C@H](NC(=O)[C@H](C(C)C)N(C)C(=O)CCN=C=NCc1ccccc1C)C(=O)N1CCC[C@H](N1)C(=O)OCC(C)(C)C2` [82 A and B] showed an IC50 [1] of 1 to 10 µM.
Work on `CCn1c(-c2cccnc2[C@H](C)OC)c2c3cc(ccc31)-c1cccc(c1)C[C@H](NC(=O)[C@H](C(C)C)N(C)C(=O)CCN=C=NCc1ccccc1OC)C(=O)N1CCC[C@H](N1)C(=O)OCC(C)(C)C2` [Compound 73] yielded an IC50 [1] of 1 to 10 µM.
`CCn1c(-c2cccnc2[C@H](C)OC)c2c3cc(ccc31)-c1cccc(c1)C[C@H](NC(=O)[C@H](C(C)C)N(C)C(=O)[C@H]1CC[C@H](N=C=NCc3ccccc3OC)C1)C(=O)N1CCC[C@H](N1)C(=O)OCC(C)(C)C2` [Compound 76] was tested, and the IC50 [1] was 1 to 10 µM.
`CCn1c(-c2cnccc2COC)c2c3cc(ccc31)-c1cccc(c1)C[C@H](NC(=O)[C@H](C(C)C)N1CC[C@@H](CN=C=NCCOC)C1)C(=O)N1CCC[C@H](N1)C(=O)OCC(C)(C)C2` [Compound 80] showed an IC50 [1] of 1 to 10 µM.
For `CCn1c(-c2cnccc2COC)c2c3cc(ccc31)-c1cc(O)cc(c1)C[C@H](NC(=O)[C@H](C(C)C)N(C)C(=O)CN1C(=O)[C@H]3N[C@H]3C1=O)C(=O)N1CCC[C@H](N1)C(=O)OCC(C)(C)C2` [Compound 98], the IC50 [1] was > 10 µM.
With `CCn1c(-c2cccnc2[C@H](C)OC)c2c3cc(ccc31)-c1cc(O)cc(c1)C[C@H](NC(=O)[C@H](C(C)C)N1CCC3(CN(C(=O)[C@@H]4CN4)C3)C1=O)C(=O)N1CCC[C@H](N1)C(=O)OCC(C)(C)C2` [Compound 109] the IC50 [1] was > 10 µM.
For `CCn1c(-c2cccnc2[C@H](C)OC)c2c3cc(ccc31)-c1cc(O)cc(c1)C[C@H](NC(=O)[C@H](C(C)C)N1CCC3(CN(C(=O)[C@H]4CN4)C3)C1=O)C(=O)N1CCC[C@H](N1)C(=O)OCC(C)(C)C2` [Compound 115], the IC50 [1] was > 10 µM.
In the case of `CCn1c(-c2cccnc2[C@H](C)OC)c2c3cc(ccc31)-c1cccc(c1)C[C@H](NC(=O)[C@H](C(C)C)N(C)C(=O)[C@H]1C[C@H](N=C=Nc3c(C)cccc3C)C1)C(=O)N1CCC[C@H](N1)C(=O)OCC(C)(C)C2` [Compound 126], the IC50 [1] is reported as > 10 µM.
In the case of `CCn1c(-c2cccnc2[C@H](C)OC)c2c3cc(ccc31)-c1cc(O)cc(c1)C[C@H](NC(=O)[C@H](C(C)C)N1CC[C@@]3(CCN(C(=O)[C@@H]4N[C@@H]4C4CC4)C3)C1=O)C(=O)N1CCC[C@H](N1)C(=O)OCC(C)(C)C2` [Compound 128], the IC50 [1] is reported as 1 to 10 µM.
With `CCn1c(-c2cccnc2[C@H](C)OC)c2c3cc(ccc31)-c1cc(O)cc(c1)C[C@H](NC(=O)[C@H](C(C)C)N1CC[C@@H](NC(=O)[C@H]3CN3)C1=O)C(=O)N1CCC[C@H](N1)C(=O)OCC(C)(C)C2` [Compound 130] the IC50 [1] was > 10 µM.
In the case of `CCn1c(-c2cccnc2[C@H](C)OC)c2c3cc(ccc31)-c1cc(O)cc(c1)C[C@H](NC(=O)[C@H](C(C)C)N(C)C(=O)c1ccc([C@@H]3CN3)cc1)C(=O)N1CCC[C@H](N1)C(=O)OCC(C)(C)C2` [Compound 131], the IC50 [1] is reported as > 10 µM.
`CCn1c(-c2cccnc2[C@H](C)OC)c2c3cc(ccc31)-c1cc(O)cc(c1)C[C@H](NC(=O)[C@H](C(C)C)N(C)C(=O)CN(C)C(=O)[C@H]1N[C@@H]1C1CC1)C(=O)N1CCC[C@H](N1)C(=O)OCC(C)(C)C2` [Compound 135] showed an IC50 (read-out: AsPC-1 Cell Viability IC50, AsPC-1, K-Ras G12D, 5-day treatment) of 0.1 to 1 µM.
With `CCn1c(-c2cccnc2[C@H](C)OC)c2c3cc(ccc31)-c1cc(O)cc(c1)C[C@H](NC(=O)[C@H](C(C)C)N(C)C(=O)N1CCN(C(=O)[C@H]3CN3)C(=O)C1)C(=O)N1CCC[C@H](N1)C(=O)OCC(C)(C)C2` [Compound 143] the IC50 [1] was > 10 µM.
For `CCn1c(-c2cccnc2[C@H](C)OC)c2c3cc(ccc31)-c1cc(O)cc(c1)C[C@H](NC(=O)[C@H](C(C)C)N(C)C(=O)c1ccc([C@H]3CN3)cc1)C(=O)N1CCC[C@H](N1)C(=O)OCC(C)(C)C2` [Compound 145], the IC50 [1] was > 10 µM.
In the case of `CCn1c(-c2cccnc2[C@H](C)OC)c2c3cc(ccc31)-c1cc(O)cc(c1)C[C@H](NC(=O)[C@H](C(C)C)N(C)C(=O)C1CC3(C1)CN(C(=O)[C@@H]1CN1)C3)C(=O)N1CCC[C@H](N1)C(=O)OCC(C)(C)C2` [Compound 180], the IC50 [1] is reported as > 10 µM.
For `CCn1c(-c2cccnc2[C@H](C)OC)c2c3cc(ccc31)-c1cc(O)cc(c1)C[C@H](NC(=O)[C@H](C(C)C)N(C)C(=O)N1CC(NC(=O)[C@@H]3CN3)C1)C(=O)N1CCC[C@H](N1)C(=O)OCC(C)(C)C2` [Compound 188], the IC50 [1] was > 10 µM.
In the case of `CCn1c(-c2cccnc2[C@H](C)OC)c2c3cc(ccc31)-c1cc(O)cc(c1)C[C@H](NC(=O)[C@H](C(C)C)N(C)C(=O)N1CC(NC(=O)[C@H]3CN3)C1)C(=O)N1CCC[C@H](N1)C(=O)OCC(C)(C)C2` [Compound 189], the IC50 [1] is reported as > 10 µM.
With `CCn1c(-c2cccnc2[C@H](C)OC)c2c3cc(ccc31)-c1cc(O)cc(c1)C[C@H](NC(=O)[C@H](C(C)C)N(C)C(=O)N1CCN(C(=O)[C@@H]3CN3)C(=O)C1)C(=O)N1CCC[C@H](N1)C(=O)OCC(C)(C)C2` [Compound 194] the IC50 [1] was > 10 µM.
With `CCn1c(-c2cccnc2[C@H](C)OC)c2c3cc(ccc31)-c1cc(O)cc(c1)C[C@H](NC(=O)[C@H](C(C)C)N(C)C(=O)N(C)C1CN(C(=O)[C@H]3CN3)C1)C(=O)N1CCC[C@H](N1)C(=O)OCC(C)(C)C2` [Compound 203] the IC50 [1] was > 10 µM.
`CCn1c(-c2cccnc2[C@H](C)OC)c2c3cc(ccc31)-c1cc(O)cc(c1)C[C@H](NC(=O)[C@H](C(C)C)N(C)C(=O)[C@H]1CCN(C(=O)[C@H]3CN3)[C@H]1C)C(=O)N1CCC[C@H](N1)C(=O)OCC(C)(C)C2` [Compound 206] was tested, and the IC50 [1] was > 10 µM.
With `CCn1c(-c2cccnc2[C@H](C)OC)c2c3cc(ccc31)-c1cc(O)cc(c1)C[C@H](NC(=O)[C@@H](COC1CCN(C(=O)[C@H]3CN3)CC1)C(C)C)C(=O)N1CCC[C@H](N1)C(=O)OCC(C)(C)C2` [Compound 211] the IC50 [1] was > 10 µM.
With `CCn1c(-c2cccnc2[C@H](C)OC)c2c3cc(ccc31)-c1cc(O)cc(c1)C[C@H](NC(=O)[C@H](C(C)C)N(C)C(=O)c1nc(NC(=O)[C@H]3CN3)cs1)C(=O)N1CCC[C@H](N1)C(=O)OCC(C)(C)C2` [Compound 212] the IC50 [1] was > 10 µM.
`CCn1c(-c2cccnc2[C@H](C)OC)c2c3cc(ccc31)-c1cc(O)cc(c1)C[C@H](NC(=O)[C@H](C(C)C)N1CC[C@H](NC(=O)[C@H]3CN3)C1=O)C(=O)N1CCC[C@H](N1)C(=O)OCC(C)(C)C2` [Compound 213] was tested, and the IC50 [1] was > 10 µM.
For `CCn1c(-c2cccnc2[C@H](C)OC)c2c3cc(ccc31)-c1csc(n1)C[C@H](NC(=O)[C@H](C(C)C)N(C)C(=O)N1CC[C@H]1CN(C)C(=O)[C@@H]1CN1)C(=O)N1CCC[C@H](N1)C(=O)OCC(C)(C)C2` [Compound 235], the IC50 [1] was > 10 µM.
